Measurements: US5164385A, “Azetidine derivatives and hypotensive compositions thereof” (John Wyeth & Brother, Ltd., priority 1990, dated 1992)

What was measured:
[1] = tested on: arterial blood pressure and heart rate; assay: Hypotensive activity in anaesthetised normotensive rats; assay type: in vivo, rat (Sprague-Dawley); conditions: iv
Description: The compounds are tested for hypotensive activity in anaesthetised normotensive rats. In this procedure adult male Sprague-Dawley rats weighing 200-400 g are anaesthetised with 70 mg/kg pentobarbitone sodium, i.p. The fermoral (or jugular) vein, the femoral (or carotid) artery, and the trachea are cannulated and the vascular canulae then flushed with 0.3 ml of heparinised saline (125 U/ml). The arterial blood pressure and heart rate are continuously monitored. Top-up doses of 6 or 12 mg/kg anaesthetic are administered as required until a stable base-line is obtained. A cumulative dose-response curve to the test compound is then obtained, using a 5 min dose interval. Each dose is administered in a volume of […] and flushed in with 0.5 ml saline. Systolic, diastolic, and mean arterial blood pressure and heart rate are then calculated 5 min after each dose and compared with the pre-dose value. Mean results from six rats are analysed using analysis of variants. The ED20 (ie the dose giving a 20% fall in mean arterial blood pressure) is also calculated. […] The minimum effective dose of this compound which produced a significant decrease in blood pressure was 1 μg/kg iv, and the ED20 was 5.2 μg/kg iv.

[2] = biological target: T1, 5-HT1 receptor (Rattus norvegicus, UniProt P19327); assay: 5-HT1 receptor agonist activity in vivo: induction of the 5-HT behavioural syndrome in rats; conditions: iv, sequential up-down method
T1 construct: measuring their ability to induce the 5-HT behavioural syndrome in rats; from tissue; host or cells: living rats (in vivo, intravenous dosing); endogenous receptor of the central nervous system
T1 sequence (P19327 1-422): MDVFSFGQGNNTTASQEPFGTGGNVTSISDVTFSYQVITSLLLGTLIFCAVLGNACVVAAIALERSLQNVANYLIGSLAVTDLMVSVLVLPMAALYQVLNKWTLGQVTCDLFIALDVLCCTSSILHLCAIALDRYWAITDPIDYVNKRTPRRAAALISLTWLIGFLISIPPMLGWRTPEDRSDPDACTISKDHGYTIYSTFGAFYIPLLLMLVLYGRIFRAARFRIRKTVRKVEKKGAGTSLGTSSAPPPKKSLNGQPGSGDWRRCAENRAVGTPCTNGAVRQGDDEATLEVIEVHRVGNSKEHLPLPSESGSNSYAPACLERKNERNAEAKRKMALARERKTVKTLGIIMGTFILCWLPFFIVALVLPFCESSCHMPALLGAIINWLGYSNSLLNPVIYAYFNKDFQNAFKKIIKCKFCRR
Description: The compounds are evaluated for 5-HT1 receptor agonist activity in vivo by measuring their ability to induce the 5-HT behavioural syndrome in rats (A. R. Green, Neuropharmacology, 1984, 23 1521). Compounds which induce 5-HT-related behaviours are adjudged to be `active`, and a sequential up-down method (A. W. Kimball, W. T. Burnett, and D. G. Doherty, Radiation Research, 1957, 7, 1) is used to determine ED50 values for the compounds.

[3] = anaesthetised normotensive male Sprague-Dawley rats, cumulative dose-response, 5 min after each dose

With `Oc1cccc2c1CC(N1CCC1)CC2` (centres unmarked) [Example 3, 7-(1-Azetidinyl)-5,6,7,8-tetrahydro-1-naphthalenol] the ED20 ([1]; Rattus norvegicus, 5 min, anaesthetised normotensive rats, read-out: ED20 (dose giving a 20% fall in mean arterial blood pressure)) was 5.2 µg/kg, the minimal effective dose ([1]; Rattus norvegicus, 5 min, anaesthetised normotensive rats, read-out: minimum effective dose which produced a significant decrease in blood pressure) was 1 µg/kg and the “effect on blood pressure” value [1, 3] was “dose-related falls”. For the same compound, the “effect on heart rate” value [1, 3] was “dose-related falls” and the ED50 [2] was 70 µg/kg.
